Results: article PMC4641156, “Evaluation of a Novel Tc-99m Labelled Vitamin B12 Derivative for Targeting Escherichia coli and Staphylococcus aureus In Vitro and in an Experimental Foreign-Body Infection Model” (Molecular Imaging and Biology, 2015)

Columns and labels:
[1] = Biodistribution after i.v. injection in tissue cage mouse model (organs, tissues, cages overall)
Procedure: (§1) C57Bl/6 mice from in-house breeding or purchased from Charles River Laboratories GmbH (Sulzfeld, Germany) were housed in the Animal Facility of the Department of Biomedicine, University Hospital, Basel, Switzerland. Experiments were performed in accordance to the regulations of Swiss veterinary law. The Institutional Animal Care and Use Committee approved the study protocol. Drinking water and standard laboratory food pellets (CR) were provided ad libitum. To reduce interference of high vitamin B12 level in mice, animals randomized for Cbl biodistribution studies were fed with a vitamin B12-reduced diet (Provimi Kliba AG, Kaiseraugst, Switzerland) beginning at the age of 10 weeks. At the age of 12 weeks, one sterile polytetrafluoroethylene (Teflon) tube (32 × 10 mm), perforated by 130 regularly spaced holes of 1 mm diameter, was aseptically implanted into the back of each mouse, as previously described. Each cage was weighted and numbered before implantation. Two weeks after surgery, clips were removed from healed wounds, and sterility of the cage was confirmed by culture of aspirated cage fluid. On the following day, 5 × 10^5 CFU of E. coli or 5 × 10^6 CFU of S. aureus, resuspended in 200 μl of 0.9 % saline, were injected into cages. Sterile 0.9 % saline was injected in cages in animals used as negative controls.
The two different experimental set-up of biodistribution were adapted to the known radiopharmaceutical binding/non-binding to plasma protein, persistence in organs and tissues and half-life of the labelling radioisotope.
(§2) Accumulation of radiopharmaceuticals in cage fluids was measured by resuspending 100 μl of aspirated fluid in 1 ml PBS and counted in a gamma counter. The percentage of injected dose (% IDTCF/ml) was calculated as measured CPM normalized per 1 ml cage fluid and divided by the CPM0 (injected dose). For determination of radiopharmaceutical biodistribution, mice were sacrificed with an intraperitoneal injection of 50–80 μl saline solution of pentothal (100 mg/ml). Blood was collected by cardiac puncture, and mice were perfused with 0.9 % saline for around 5 min. Following, tissues were dissected, weighted and collected into test tubes for γ-counter (blood, heart, liver, spleen, stomach, kidneys, lungs, intestine, muscle, bone and cage). The percentage of injected dose (% IDtissue/g) was calculated as CPM associated to each organ divided by its weight in grams and by the CPM0.

[2] = Distribution into sterile (non-infected) tissue cages and cage fluids; conditions: for Cage—sterile, mean % ID/g tissue ± SD: explanted sterile cage
Procedure: as §1, §2

[3] = test system: E. coli-infected cages; test: Distribution into E. coli-infected tissue cages and cage fluids; conditions: for Cage—E. coli, mean % ID/g tissue ± SD: explanted E. coli-infected cage
Procedure: (§3) For in vivo studies, overnight cultures were prepared in 5 ml tryptic soy broth (TSB), incubated at 37 °C for 18–20 h. Bacterial suspensions were then washed three times, resuspended in 5 ml of sterile 0.9 % saline and diluted.
as §1, §2

[4] = test system: S. aureus-infected cages; test: Distribution into S. aureus-infected tissue cages and cage fluids; conditions: for Cage—S. aureus, mean % ID/g tissue ± SD: explanted S. aureus-infected cage
Procedure: as §3, §1, §2

[5] = test system: S. aureus (ATCC 35556, methicillin susceptible); test: In vitro binding of radiotracers to S. aureus (kinetics and competition with unlabeled Cbl); assay type: cell-based, Staphylococcus aureus
Procedure: Laboratory strains E. coli (ATCC 25922) and S. aureus (ATCC 35556, methicillin susceptible) were used. Bacteria were stored at −70 °C using a cryovial bead preservation system (Microbank, Pro-Lab Diagnostics, Richmond Hill, ON, Canada). Single cryovial beads were cultured overnight on Columbia sheep blood agar plates (Becton Dickinson, Heidelberg, Germany). For in vitro binding studies, overnight cultures were prepared in snap-lid tubes from 2 to 3 CFU in 5 ml of a synthetic minimal medium depleted of vitamin B12. After 18–20 h of incubation at 37 °C and 200 rpm, the cultures were diluted 1:100 in the same medium and further incubated at 37 °C to mid-logarithmic phase in sealed tubes. […] Five hundred microlitres of resuspended cultures were transferred to Eppendorf tubes and used for the measurement of binding to viable bacteria at 37 °C. For testing binding at 4 °C, bacterial suspension in PBS were let to equilibrate for 1 h at 4 °C before adding the radiopharmaceuticals. […] The bacterial suspensions were then centrifuged, resuspended in PBS and used for further studies. […] Colony counts remained <10 CFU/ml. Five hundred microlitres of each radiopharmaceutical solution was added to the 500 μl of bacterial suspensions. Binding assays were performed in quadruplicate vials per testing conditions. Afterwards, vials were centrifuged for 5 min at 13,500 rpm and 4 °C, and pellets were washed with 500 μl of cooled PBS. Supernatants and resuspended pellets were counted in a multi-well NaI γ-counter (Cobra; Packard, USA) and the counts per minute (CPM) recorded. The percentage of radiolabeled Cbl in the pellets was calculated as the percentage of the CPMp/CPM0 ratio per log10 8.0 CFU/ml, where CPMp were the CPM associated to pellets and CPM0 were the total CPM of the radiolabeled Cbl added per vial.

[6] = test system: transcobalamin II (TC II); design: method as in PMID 12831983, PMID 18413759; conditions: cited from earlier work
[7] = test system: E. coli (ATCC 25922); test: In vitro binding of radiotracers to E. coli (kinetics and competition with unlabeled Cbl); assay type: cell-based, Escherichia coli
Procedure: Laboratory strains E. coli (ATCC 25922) and S. aureus (ATCC 35556, methicillin susceptible) were used. Bacteria were stored at −70 °C using a cryovial bead preservation system (Microbank, Pro-Lab Diagnostics, Richmond Hill, ON, Canada). Single cryovial beads were cultured overnight on Columbia sheep blood agar plates (Becton Dickinson, Heidelberg, Germany). For in vitro binding studies, overnight cultures were prepared in snap-lid tubes from 2 to 3 CFU in 5 ml of a synthetic minimal medium depleted of vitamin B12. After 18–20 h of incubation at 37 °C and 200 rpm, the cultures were diluted 1:100 in the same medium and further incubated at 37 °C to mid-logarithmic phase in sealed tubes. […] Five hundred microlitres of resuspended cultures were transferred to Eppendorf tubes and used for the measurement of binding to viable bacteria at 37 °C. For testing binding at 4 °C, bacterial suspension in PBS were let to equilibrate for 1 h at 4 °C before adding the radiopharmaceuticals. […] Supernatants and resuspended pellets were counted in a multi-well NaI γ-counter (Cobra; Packard, USA) and the counts per minute (CPM) recorded. The percentage of radiolabeled Cbl in the pellets was calculated as the percentage of the CPMp/CPM0 ratio per log10 8.0 CFU/ml, where CPMp were the CPM associated to pellets and CPM0 were the total CPM of the radiolabeled Cbl added per vial.

[8] = cage fluid, vs sterile controls

## O=C([O-])CC(O)(CC(=O)[O-])C(=O)[O-].[67Ga+3] [[^67Ga]citrate, Gallium-67 citrate]
[1]; 72 h after i.v. injection
  Blood, mean % ID/g tissue ± SD: 0.46 ± 0.20 % ID/g tissue
  Bone, mean % ID/g tissue ± SD: 10.99 ± 2.40 % ID/g tissue
  Heart, mean % ID/g tissue ± SD: 1.26 ± 0.10 % ID/g tissue
  Intestine, mean % ID/g tissue ± SD: 2.00 ± 0.40 % ID/g tissue
  Kidneys, mean % ID/g tissue ± SD: 10.73 ± 1.30 % ID/g tissue
  Liver, mean % ID/g tissue ± SD: 7.44 ± 0.90 % ID/g tissue
  Lungs, mean % ID/g tissue ± SD: 2.11 ± 0.30 % ID/g tissue
  Muscle, mean % ID/g tissue ± SD: 0.69 ± 0.20 % ID/g tissue
  Spleen, mean % ID/g tissue ± SD: 6.09 ± 0.70 % ID/g tissue
  Stomach, mean % ID/g tissue ± SD: 3.73 ± 1.50 % ID/g tissue
[1]; cage fluids
  Time to peak values in cages: ≤ 12 h
[2]; 72 h p.i.
  Cage fluid/blood ratio, control (non-infected) mice: 1.14 ± 0.21
[2]; 72 h after i.v. injection
  Cage—sterile, mean % ID/g tissue ± SD: 1.45 ± 0.50 % ID/g tissue
[3]; 72 h p.i.
  Cage fluid/blood ratio, mice infected with E. coli: 5.41 ± 0.52
[3]; 72 h after i.v. injection
  Cage—E. coli, mean % ID/g tissue ± SD: 3.99 ± 1.10 % ID/g tissue
[4]; 72 h p.i.
  Cage fluid/blood ratio, mice infected with S. aureus: 3.56 ± 0.87
[4]; 72 h after i.v. injection
  Cage—S. aureus, mean % ID/g tissue ± SD: 9.45 ± 2.30 % ID/g tissue

## O=C([O-])CN(CCN(CC(=O)[O-])CC(=O)[O-])CCN(CC(=O)[O-])CC(=O)[O-].[99Tc+4] [[^99mTc]DTPA]
[1]; 30 min after i.v. injection
  Blood, mean % ID/g tissue ± SD: 1.46 ± 1.10 % ID/g tissue
  Bone, mean % ID/g tissue ± SD: 0.47 ± 0.30 % ID/g tissue
  Intestine, mean % ID/g tissue ± SD: 0.90 ± 0.50 % ID/g tissue
  Kidneys, mean % ID/g tissue ± SD: 3.92 ± 0.80 % ID/g tissue
  Liver, mean % ID/g tissue ± SD: 0.33 ± 0.20 % ID/g tissue
  Lungs, mean % ID/g tissue ± SD: 0.40 ± 0.20 % ID/g tissue
  Muscle, mean % ID/g tissue ± SD: 0.34 ± 0.30 % ID/g tissue
  Spleen, mean % ID/g tissue ± SD: 0.19 ± 0.00 % ID/g tissue
  Stomach, mean % ID/g tissue ± SD: 1.67 ± 1.70 % ID/g tissue
[1]; 4 h after i.v. injection
  Blood, mean % ID/g tissue ± SD: 0.02 ± 0.10 % ID/g tissue
  Bone, mean % ID/g tissue ± SD: 0.05 ± 1.50 % ID/g tissue
  Heart, mean % ID/g tissue ± SD: 0.05 ± 0.00 % ID/g tissue
  Intestine, mean % ID/g tissue ± SD: 0.66 ± 0.20 % ID/g tissue
  Kidneys, mean % ID/g tissue ± SD: 0.93 ± 0.80 % ID/g tissue
  Liver, mean % ID/g tissue ± SD: 0.09 ± 0.00 % ID/g tissue
  Lungs, mean % ID/g tissue ± SD: 0.06 ± 0.10 % ID/g tissue
  Muscle, mean % ID/g tissue ± SD: 0.06 ± 1.10 % ID/g tissue
  Spleen, mean % ID/g tissue ± SD: 0.06 ± 0.00 % ID/g tissue
  Stomach, mean % ID/g tissue ± SD: 0.05 ± 1.10 % ID/g tissue
[1]; 24 h after i.v. injection
  Blood, mean % ID/g tissue ± SD: 0.01 ± 0.00 % ID/g tissue
  Bone, mean % ID/g tissue ± SD: 0.01 ± 0.00 % ID/g tissue
  Heart, mean % ID/g tissue ± SD: 0.01 ± 0.00 % ID/g tissue
  Intestine, mean % ID/g tissue ± SD: 0.02 ± 0.00 % ID/g tissue
  Kidneys, mean % ID/g tissue ± SD: 0.15 ± 0.00 % ID/g tissue
  Liver, mean % ID/g tissue ± SD: 0.02 ± 0.00 % ID/g tissue
  Lungs, mean % ID/g tissue ± SD: 0.01 ± 0.00 % ID/g tissue
  Muscle, mean % ID/g tissue ± SD: 0.00 ± 0.00 % ID/g tissue
  Spleen, mean % ID/g tissue ± SD: 0.02 ± 0.00 % ID/g tissue
  Stomach, mean % ID/g tissue ± SD: 0.02 ± 0.00 % ID/g tissue
[2]; 30 min after i.v. injection
  Cage—sterile, mean % ID/g tissue ± SD: 2.88 ± 0.50 % ID/g tissue
[2]; 4 h after i.v. injection
  Cage—sterile, mean % ID/g tissue ± SD: 0.34 ± 0.40 % ID/g tissue
[2]; 24 h after i.v. injection
  Cage—sterile, mean % ID/g tissue ± SD: 0.01 ± 0.00 % ID/g tissue
[3]; 4 h after i.v. injection
  Cage—E. coli, mean % ID/g tissue ± SD: 0.91 ± 0.15 % ID/g tissue
[3]; 24 h after i.v. injection
  Cage—E. coli, mean % ID/g tissue ± SD: 0.15 ± 0.10 % ID/g tissue
[4]; 4 h after i.v. injection
  Cage—S. aureus, mean % ID/g tissue ± SD: 0.40 ± 0.10 % ID/g tissue
[4]; 24 h after i.v. injection
  Cage—S. aureus, mean % ID/g tissue ± SD: 0.05 ± 0.10 % ID/g tissue

## [^99mTc]PAMA(4)-cyanocobalamin [[^99mTc]PAMA(4)-Cbl]
[5]; ethanol-killed and/or heat-killed bacteria
  Binding to killed S. aureus: no binding
[5]; relative to [57Co]Cbl
  In vitro binding to S. aureus, fold lower than [57Co]Cbl: 3 fold
[2]; 24 h p.i.
  Cage fluid/blood ratio, non-infected mice: 1.53 ± 0.30
[3]; [8]
  Time p.i. at which cage fluid retention was significantly higher in E. coli-infected than control mice: 8 h
[4]; [8]
  Time p.i. at which cage fluid % IDTCF/ml was significantly higher in S. aureus-infected than control mice: 4 h
[6]
  Binding to the major Cbl transport protein TC II: abolished binding

## cyanocobalamin [unlabeled Cbl]
[7]; 4 °C and ethanol-killed bacteria
  Cold Cbl excess sufficient to reduce maximal [57Co]Cbl binding to E. coli to 50 %: 10 fold
[7]; 37 °C, viable bacteria, 1 h simultaneous incubation
  Concentration of unlabeled Cbl required to show inhibition of [57Co]Cbl binding to E. coli: 1000 fold
[5]; S. aureus, 3 h
  Excess of unlabeled Cbl that decreased [99mTc]PAMA(4)-Cbl binding to S. aureus: 1 fold
[5]; both 37 and 4 °C, 3 h
  Excess of unlabeled Cbl that reduced [57Co]Cbl binding to S. aureus: 10 fold
